# Literature values, collected in US8754096B2, “Piperidinone carboxamide azaindane CGRP receptor antagonists” (Merck Sharp & Dohme Corp., priority 2010, dated 2014).
# System: migraine
# Conditions: phase III clinical trials, orally bioavailable
smiles,measurement,value
O=C(N[C@@H]1CC[C@@H](c2cccc(F)c2F)CN(CC(F)(F)F)C1=O)N1CCC(n2c(=O)[nH]c3ncccc32)CC1 [telcagepant],antimigraine effectiveness,shown antimigraine effectiveness
